Reference: patent US11866430B2, “Naphthyridinone compounds useful as T cell activators” (priority 2018, dated 2024)

What was measured:
naïve human CD8 T cells [1] = experiment: Human CD8 T cells pERK Assay; type: cell-based; conditions: T-cell, read-out: HuCD8 pERK IC50
Protocol: Frozen naïve human CD8 T cells were thawed in AIM-V media, incubated for 2 h in 37° C., and counted. The CD8 positive T cells were added to 384-well tissue culture plate at 20,000 cells per well in AIM-V media. One compound was added to each well, then bead bound anti-human CD3 and anti-CD28 mAb were added at final concentration of 0.3 μg/mL. The cells were incubated at 37° C. for 10 minutes. The reaction was stopped by adding lysis buffer from the AlphaLISA Surefire kit. (Perkin Elmer, cat #ALSU-PERK-A). Lysate (5 μL per well) was transferred into a new 384-well white assay plate for pERK activation measurement.

naïve human CD8 T cells [2] = experiment: cells; conditions: Homo sapiens, T-cell, read-out: HuCD8 INFG Normalized EC50, anti-CD3 plus anti-CD28 as baseline; 3 μM Example 40 co-stimulation as 100% activation
In short: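 Thawed frozen cells, 40,000/well, stimulated on plate-bound anti-CD3 (coated at 0.05 μg/mL) plus soluble anti-CD28 0.1 μg/mL; compounds added immediately after plating. After 20 h at 37° C., supernatant IFN-γ quantitated by AlphaLISA, counts converted to IFN-γ concentration […].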

human DGKα = human DGKα (Homo sapiens (Human), UniProt P23743); experiment: biochemical; conditions: detergent/lipid micelle substrate; read-out: DGKα IC50
Sequence of human DGKα (P23743 other isoform, or with tags, fused parts or gaps): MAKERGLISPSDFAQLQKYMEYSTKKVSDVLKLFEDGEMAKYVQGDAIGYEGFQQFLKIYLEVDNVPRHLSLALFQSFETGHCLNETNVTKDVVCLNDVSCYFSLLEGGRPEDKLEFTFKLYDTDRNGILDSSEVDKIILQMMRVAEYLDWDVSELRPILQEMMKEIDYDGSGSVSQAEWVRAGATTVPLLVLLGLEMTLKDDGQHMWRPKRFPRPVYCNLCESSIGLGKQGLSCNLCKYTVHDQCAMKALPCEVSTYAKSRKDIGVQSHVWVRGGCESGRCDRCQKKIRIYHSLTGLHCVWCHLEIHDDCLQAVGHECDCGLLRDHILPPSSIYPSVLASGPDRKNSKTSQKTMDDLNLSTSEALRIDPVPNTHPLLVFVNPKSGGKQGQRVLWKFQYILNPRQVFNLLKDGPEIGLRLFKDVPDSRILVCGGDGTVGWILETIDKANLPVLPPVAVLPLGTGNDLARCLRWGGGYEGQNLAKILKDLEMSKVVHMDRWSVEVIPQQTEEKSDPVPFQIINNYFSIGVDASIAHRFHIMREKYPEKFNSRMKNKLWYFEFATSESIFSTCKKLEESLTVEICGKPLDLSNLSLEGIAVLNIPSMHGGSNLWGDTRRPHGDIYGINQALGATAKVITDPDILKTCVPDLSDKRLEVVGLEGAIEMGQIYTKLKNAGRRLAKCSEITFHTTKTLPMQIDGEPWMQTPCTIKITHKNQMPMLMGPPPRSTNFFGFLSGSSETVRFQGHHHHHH
In short: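 Full-length human DGKζ (and DGKα), C-terminal His-tagged, Sf9-expressed, with phosphatidylserine/DAG micelles in 50 mM octyl glucoside; buffer 50 mM MOPS pH 7.5, 100 mM NaCl, 10 mM MgCl2, 1 μM CaCl2, 1 mM DTT.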

naïve human CD8 T cells [3] = experiment: CellTiter-Glo CD8 T Cell Proliferation Assay; type: cell-based; conditions: CellTiter-Glo CD8 T cell proliferation, normalized, read-out: CD8 GLO normalized EC50
[4] = system: pre-activated CD4 T cells and Raji cells; experiment: Raji CD4 T Cell IL2 Assay; type: cell-based; conditions: Homo sapiens, Raji

COc1cc(F)ccc1C(c1ccc(F)cc1)N1CCN(c2c([N+](=O)[O-])c(=O)n(C)c3ccc(C#N)nc23)CC1 (single isomer, unassigned) [Example 124, 8-(4-((4-fluoro-2-methoxyphenyl)(4-fluorophenyl)methyl)piperazin-1-yl)-5-methyl-7-nitro-6-oxo-5,6-dihydro-1,5-naphthyridine-2-carbonitrile] showed an IC50 (naïve human CD8 T cells [1]) of 360 nM, an EC50 (naïve human CD8 T cells [2]) of 10 nM and an IC50 (human DGKα) of 750 nM. It also gave an EC50 (naïve human CD8 T cells [3]; Homo sapiens, T-cell) of 20 nM.

C#CCn1c(=O)c([N+](=O)[O-])c(N2CCN(C(CC)c3ccc(F)cc3)CC2)c2nc(C#N)ccc21 (single isomer, unassigned) [Example 141, 8-{4-[1-(4-fluorophenyl)propyl]piperazin-1-yl}-7-nitro-6-oxo-5-(prop-2-yn-1-yl)-5,6-dihydro-1,5-naphthyridine-2-carbonitrile] showed an EC50 (naïve human CD8 T cells [2]) of 30 nM, an IC50 (human DGKα) of 270 nM and an EC50 (naïve human CD8 T cells [3]; Homo sapiens, T-cell) of 10 nM.

With C#CCn1c(=O)c([N+](=O)[O-])c(N2CCN(C(c3ccc(F)cc3)C3CC3)CC2)c2nc(C#N)ccc21 (single isomer, unassigned) [Example 143, 8-(4-(cyclopropyl(4-fluorophenyl)methyl)piperazin-1-yl)-7-nitro-6-oxo-5-(prop-2-yn-1-yl)-5,6-dihydro-1,5-naphthyridine-2-carbonitrile] the IC50 (naïve human CD8 T cells [1]) was 60 nM, the EC50 (naïve human CD8 T cells [2]) was 90 nM and the IC50 (human DGKα) was 1300 nM. The EC50 (naïve human CD8 T cells [3]; Homo sapiens, T-cell) was 10 nM.

In the case of CC(C)C(c1ccc(F)cc1)N1CCN(c2c(C#N)c(=O)n(C)c3ccc(Cl)nc23)CC1 (single isomer, unassigned) [Example 315, 6-chloro-4-{4-[1-(4-fluorophenyl)-2-methylpropyl]piperazin-1-yl}-methyl-2-oxo-1,2-dihydro-1,5-naphthyridine-3-carbonitrile], the IC50 [4] is reported as 250 nM and the EC50 (naïve human CD8 T cells [3]; Homo sapiens, T-cell) is reported as 1260 nM.

In the case of CC(c1ccc(F)cc1)N1CCN(c2c(C#N)c(=O)n(C)c3ccc(Cl)nc23)CC1 (single isomer, unassigned) [Example 388, 6-chloro-4-{4-[1-(4-fluorophenyl)ethyl]piperazin-1-yl}-1-methyl-2-oxo-1,2-dihydro-1,5-naphthyridine-3-carbonitrile], the IC50 (human DGKα) is reported as 53 nM and the EC50 (naïve human CD8 T cells [3]) is reported as 480 nM.

CCCCn1c(=O)c([N+](=O)[O-])c(N2CCN(C(c3ccccc3)c3ccccc3)CC2)c2ncccc21 [Example 177, 4-(4-benzhydrylpiperazin-1-yl)-1-butyl-3-nitro-1,5-naphthyridin-2(1H)-one] showed an EC50 (naïve human CD8 T cells [3]; Homo sapiens, T-cell) of 10000 nM.

Cc1ccc2c(n1)c(N1CCN(C(C)c3ccc(F)cc3)CC1)c(Br)c(=O)n2C (stereo not shown) [Example 224, 3-bromo-4-(4-(1-(4-fluorophenyl)ethyl)piperazin-1-yl)-1,6-dimethyl-1,5-naphthyridin-2(1H)-one] showed an IC50 (human DGKα) of 540 nM and an EC50 (naïve human CD8 T cells [3]; Homo sapiens, T-cell) of 4280 nM.

Cn1c(=O)c([N+](=O)[O-])c(N2CCN(Cc3cccc4ccccc34)CC2)c2nc(C#N)ccc21 [Example 415, 5-methyl-8-{4-[(naphthalen-1-yl)methyl]piperazin-1-yl}-7-nitro-6-oxo-5,6-dihydro-1,5-naphthyridine-2-carbonitrile] was tested, and the EC50 (naïve human CD8 T cells [3]; Homo sapiens, T-cell) was 20 nM.

For Cn1c(=O)c(C#N)c(N2CCN(C(C)(C)c3ccc(F)cc3)CC2)c2nc(Cl)ccc21 [Example 425, 6-chloro-4-{4-[2-(4-fluorophenyl)propan-2-yl]piperazin-1-yl}-1-methyl-2-oxo-1,2-dihydro-1,5-naphthyridine-3-carbonitrile], the IC50 [4] was > 100000 nM, the IC50 (human DGKα) was 1800 nM and the EC50 (naïve human CD8 T cells [3]; Homo sapiens, T-cell) was 190 nM.
